From patent US20130323721A1, “HEPATOCYTES FOR IN VITRO GENOTOXICITY TESTS” (MEDICYTE GMBH, priority 2010, published 2013)
Like-named read-outs stand apart in the source and are kept apart here.

How the values were obtained:
[1] = tested on: proliferating hepatocytes; assay: Micronucleus formation in proliferating hepatocytes, FACS assay
Procedure: So as to check the suitability of the proliferatable hepatocytes described in the patent with respect to genotoxicity tests, the cells were treated with substances that are considered positive and negative substances for genotoxicity. Genotoxicity was quantified by way of the share of induced micronuclei as compared to the control group using an FACS assay.
The proliferating hepatocytes described in the invention were plated out in a density of 3000 cells/cm^2 on collagen-coated cell culture vessels and treated with the aforementioned substances in various concentrations. Within the scope of regulatory testing according to OECD, testing took place up to 50% cytotoxicity, which was determined for each substance beforehand by way of a MTT viability assay.

[2] = tested on: V79 cells; conditions: with or without S9 mix; cited from earlier work
[3] = tested on: bacteria (auxotrophic mutants); conditions: with S9 fraction of hamster liver; cited from earlier work

## COc1cc(/C=C/C(=O)CC(=O)/C=C/c2ccc(O)c(OC)c2)ccc1O [curcumin]
[1]
  Genotoxicity: induced micronuclei compared to the control group: did not induce increased micronuclei formation

## O=P1(N(CCCl)CCCl)NCCCO1 (stereo not shown) [CPA, cyclophosphamide]
[1]; various concentrations up to 50% cytotoxicity, no external S9, FIGS. 2-4
  Genotoxicity: induced micronuclei compared to the control group: clearly recognized as being positive
[2]
  Detection of genotoxicity in micronucleus test: only detected in the currently used micronucleus test with V79 cells if the substance was previously converted with a CYP enzyme extract (S9 mix)

## CCOc1ccc(NC(C)=O)cc1 [phenacetin]
[3]
  Ames test result (mutagenicity): only tested positively in the Ames test if an incubation of phenacetin is carried out with the S9 fraction of hamster liver
